Read-outs that look alike come from different tables or passages of the source.

Among the data in paper PMC8224775, “Five Tetramic Acid Derivatives Isolated from the Iranian Fungus Colpoma quercinum CCTU A372” (Biomolecules, 2021) are IC50 values, retold here.

What all share (assay): 5-day MTT cytotoxicity assay
In general terms: Formazan colour is commonly taken as a measure of viable cells.

The subject of test [1] is endocervical adenocarcinoma KB-3.1. Type of test: cell-based, human. Conditions: KB-3.1, 5-day MTT assay. Here is the method: (§1) Cytotoxicity of compounds 1‒5 was initially determined against two cancer cell lines (mouse fibroblasts L-929 and human endocervical adenocarcinoma KB-3.1) by using a 5-day MTT assay according to an established procedure.
(§2) In 96-well flat-bottom microtiter plates, cell lines with serial dilution of the test compounds (final range: 37 to 0.6 × 10^−3 µg/mL) were incubated for five days. After five days, the cells were dyed using 3-(4,5-dimethyl-2-thiazolyl)-2,5-diphenyl-2H-tetrazolium bromide (MTT), which is only converted to its purple formazan derivative by living cells. The half-maximum inhibitory concentration (IC50 in µM) was calculated via the colorimetric method in a microplate reader using absorption at 595 nm. In addition, when an inhibition with an IC50 < 50 µM was observed, other cell lines were subjected to the test compounds to evaluate their further cytotoxicity: PC-3 (human prostate adenocarcinoma), SK-OV-3 (human ovary adenocarcinoma), MCF-7 (human breast adenocarcinoma), A-431 (human squamous carcinoma), and A549 (human lung carcinoma). A detailed procedure, including the colorimetric method to determine the cell viability, can be found in the SI.
(§3) Protocol: Cytotoxicity Assay
(§4) The assay was co nducted in 9 6-well flat -botto m microtiter plates using the parameters summarised in T able S2 and as described in [S2]. Cell l ines L-929 and KB-3.1 were incubated at 37 °C under 10 % CO2 in Gibco™ DMEM medium (T her mo Fisher Scientific, Waltham, M A, USA) supplemented with 10 % FBS. A microtiter plate was filled wit h 120 μ L o f this suspensio n (50,000/mL) in each well. Seperatel y, a nother microti ter plate wa s filled wit h 100 μL of gro wth medium in each well. Then, 50 μ L of the test compound solutions (1 mg/mL) were given to wells of the first column in two replicates (one compound per row). Cells without additives and MeOH were used as nega tive controls. Starting from the first column, 50 μ L of the solutions were gradually transferred to the next column, the contents thoroughly mixed, and 50 μL transferred to the following column. This created a serial dilution of the test compounds ranging from 333 μ g/mL to 1.9×10-3 μg/ mL. T he re mai ni ng 50 μ L after column twelve were discarded. From this microtiter plate, 60 μ L of the solutions fro m 111 μ g/mL to 1.9×10-3 μg/mL we r e give n to t he firs t p late co ntai ni ng 1 2 0 μ L of the cell suspensions (i.e. the highest co ncentration 333 μ g/ mL wa s no t used). T his resul ted in fi nal compo und concentratio ns rangi ng fro m 37 μ g/mL to 0.6×10-3 μg/ mL. After 5 days o f incubatio n under the aforementioned incubatio n conditions, the half maximu m inhibitory co ncentrations (IC50) were deter mined using a colorimetric tetrazolium d ye MT T assa y [S3]. For this, 20 μ L of a 5 mg/mL solution of 3-(4,5-dimethyl-2 -thiazolyl) -2,5-diphenyl-2H-tetrazolium br omide (MTT) were added to each well and incubated for two hours at 37 °C. T hen, the microtiter plate was ce ntrifuged (3,000 rpm, 5 min) and the supernatant removed by holding the plate upside-down and gentle shaking. Afterwards, the wells were washed using 100 μ L of phosphate buffered saline (PBS). T he plate was a gain ce ntrifuged a nd the supernata nt re mo ved as described before.
(§5) T hen, 1 0 0 μ L of an isopropanol:HCl solution (1L isopropanol+4 mL HCl 37 % w/v) were added to the wells. After incubating for 10 min at ambient temperature, the absorption of the wells at 595 nm was measured with an Infinite® 200 Pro microplate reader (TECAN, Männedorf, Schweiz). The absorption values of the cells without additives were averaged and set to 100 % cell viability. Then, the means of absorption of the two compound replicates were set in relation to the blank media. T hese percentage values were plotted against the concentratio n range (37 μ g/mL to 0.6×10−3 μg/ mL). T he IC50 value was r ead fro m the plot (in μ g/ mL) a nd the uni ts conversed […]
to μM. […]

The test system of test [2] is human prostate cancer PC-3. Type of test: cell-based. Conditions: 120 h, PC-3, 5-day MTT assay, read-out: IC50. The method, then: as §1, §2, §3, §4, §5
to μM. […]

The test system of test [3] is human lung carcinoma A-549. Type of test: cell-based. Particulars: A549, 120 h, A-549, 5-day MTT assay, read-out: IC50. The method, then: as §1, §2, §3, §4, §5
to μM. […]

The test system of test [4] is human breast adenocarcinoma MCF-7. Type of test: cell-based. Conditions: MCF-7, 5-day MTT assay, read-out: IC50. The method, then: as §1, §2, §3, §4, §5
to μM. […]

Test [5] deals with squamous cell carcinoma A-431. Type of test: cell-based, human. Conditions: A-431, 5-day MTT assay, read-out: IC50. The method, then:
as §1, §2, §3, §4, §5
to μM. […]

Test [6] has as its system ovarian carcinoma SK-OV-3. Type of test: cell-based, human. Conditions: SK-OV-3, 5-day MTT assay, read-out: IC50. The method, then: as §1, §2, §3, §4, §5
to μM. […]

Turning to `CC(=O)OC(C(=O)O)C(C)C1C(C)=CC2CC(C)CCC2C1(C)C(O)=C1C(=O)C(C)N(C)C1=O` (stereo not shown) [compound 1, Colposetin A], the half-maximal inhibitory concentration (IC50) (as a rule, the point on the concentration scale where inhibition reaches its midpoint) in test [1] is reported as “not active”.
As for `CCC(C(=O)O)C1C(C)=CC2CC(C)CCC2C1(C)C(O)=C1C(=O)C(C)N(C)C1=O` (stereo not shown) [compound 2, Colposetin B], the 50% inhibitory concentration (IC50) in test [2] is 17.9 µM; in test [3], 16.5 µM; in test [4] (Homo sapiens, MCF7, 120 h), 6.2 to 8.1 µM; in test [4], 7.9 µM; in test [1] (Homo sapiens, KB 3-1, 120 h, read-out: IC50), 5.7 µM; in test [5], 6.2 µM. The IC50 in test [5] (Homo sapiens, A-431, 120 h) is 6.2 to 8.1 µM; in test [6] (Homo sapiens, SK-OV-3, 120 h), 6.2 to 8.1 µM; in test [6], 8.1 µM.
Regarding `CC1=CC2CC(C)CCC2C2(C)C(=O)OC(C(=O)O)C(C)C12` (stereo not shown) [compound 3, Colposetin C], in test [1], the IC50 result is listed as “not active”.
Turning to `CC(C=CCC(C)CCC=C(C)C(=O)C1=C(O)C(C)N(C)C1=O)=CC(C)C(O)C(=O)O` (stereo not shown) [compound 4, Colpomenoic acid A], the IC50 result in test [1] was “not active”.
With `CC(C=CCC(C)C=CC=C(C)C(=O)C1=C(O)C(C)N(C)C1=O)=CC(C)C(O)C(=O)O` (stereo not shown) [compound 5, Colpomenoic acid B], the IC50 entry in test [1] is reported as “not active”.
